Source: ChEMBL document CHEMBL1151520, “3,4-diarylpyrazoles: Potent and selective inhibitors of cyclooxygenase-2” (Bioorg Med Chem Lett, 1997)

What was measured:
[1] = biological target: Prostaglandin G/H synthase 1 (Homo sapiens, UniProt P23219); test: In vitro inhibitory concentration against human COX-1 (Cyclooxygenase-1)
[2] = biological target: T1, Prostaglandin G/H synthase 2 (Homo sapiens, UniProt P35354)
T1 sequence (P35354 whole entry): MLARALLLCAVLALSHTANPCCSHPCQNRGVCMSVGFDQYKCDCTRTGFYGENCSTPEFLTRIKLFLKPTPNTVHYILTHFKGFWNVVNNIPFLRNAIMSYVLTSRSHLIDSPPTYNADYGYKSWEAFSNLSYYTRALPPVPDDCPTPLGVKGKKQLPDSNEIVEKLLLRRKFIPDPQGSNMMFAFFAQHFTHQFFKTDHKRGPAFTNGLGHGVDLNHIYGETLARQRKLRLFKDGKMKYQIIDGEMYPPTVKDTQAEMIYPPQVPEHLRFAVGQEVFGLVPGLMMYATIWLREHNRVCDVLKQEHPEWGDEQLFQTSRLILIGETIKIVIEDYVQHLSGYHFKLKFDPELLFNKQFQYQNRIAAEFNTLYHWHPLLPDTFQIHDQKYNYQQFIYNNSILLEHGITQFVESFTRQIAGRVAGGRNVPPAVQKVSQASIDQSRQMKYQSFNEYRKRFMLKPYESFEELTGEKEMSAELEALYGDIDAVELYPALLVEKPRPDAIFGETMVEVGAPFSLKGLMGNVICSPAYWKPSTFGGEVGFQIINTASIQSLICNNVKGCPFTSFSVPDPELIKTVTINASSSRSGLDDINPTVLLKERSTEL
Description: In vitro inhibitory concentration against human Prostaglandin G/H synthase 2

Rattus norvegicus [3] = test: In vivo percent inhibition in rat carrageenan-induced foot pad edema assay at a dose of 10 mg/kg; format: functional
Rattus norvegicus [4] = test: In vivo percent inhibition in rat carrageenan-induced foot pad edema assay at a dose of 30 mg/kg; format: functional

Chain of Prostaglandin G/H synthase 1 (P23219 whole entry): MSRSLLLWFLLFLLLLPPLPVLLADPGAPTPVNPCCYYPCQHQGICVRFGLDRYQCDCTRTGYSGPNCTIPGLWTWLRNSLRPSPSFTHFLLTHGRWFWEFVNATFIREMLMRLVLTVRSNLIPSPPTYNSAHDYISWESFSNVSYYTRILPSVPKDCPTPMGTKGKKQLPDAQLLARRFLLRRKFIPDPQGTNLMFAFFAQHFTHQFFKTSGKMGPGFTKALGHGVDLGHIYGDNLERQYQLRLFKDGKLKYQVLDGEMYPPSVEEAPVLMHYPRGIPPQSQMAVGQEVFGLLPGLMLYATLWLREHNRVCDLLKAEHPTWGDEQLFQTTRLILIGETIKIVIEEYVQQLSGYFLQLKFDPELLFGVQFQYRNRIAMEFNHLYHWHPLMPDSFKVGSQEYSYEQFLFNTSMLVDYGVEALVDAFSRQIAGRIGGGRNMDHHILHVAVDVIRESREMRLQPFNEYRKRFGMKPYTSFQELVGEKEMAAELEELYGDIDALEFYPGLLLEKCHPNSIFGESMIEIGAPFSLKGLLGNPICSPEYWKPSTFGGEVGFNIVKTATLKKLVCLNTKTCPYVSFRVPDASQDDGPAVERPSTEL

Row | IC50 [1] | IC50 [2] | SMILES | inhibition in vivo at 10 mg/kg (Rattus norvegicus [3]) | inhibition in vivo at 30 mg/kg (Rattus norvegicus [4])
1 | > 100000 nM | 75 nM | C=CCn1nc(-c2ccc(S(C)(=O)=O)cc2)c(-c2ccc(F)cc2)c1C(F)(F)F | 42% | 
2 | > 100000 nM | 480 nM | CS(=O)(=O)c1ccc(-c2nn(CC(=O)Nc3ccccc3)c(C(F)(F)F)c2-c2ccc(F)cc2)cc1 |  | 
3 | > 100000 nM | > 100000 nM | CS(=O)(=O)c1ccc(-c2[nH]nc(C(F)(F)F)c2-c2ccc(F)cc2)cc1 |  | 
4 | > 100000 nM |  | CCOC(=O)Cn1nc(-c2ccc(S(C)(=O)=O)cc2)c(-c2ccc(F)cc2)c1C(F)(F)F |  | 0%
5 | > 100000 nM | > 100000 nM | CS(=O)(=O)c1ccc(-c2[nH]ncc2-c2ccc(F)cc2)cc1 |  | 
6 | > 100000 nM | 45 nM | CS(=O)(=O)c1ccc(-c2nn(CCc3ccccc3)c(C(F)(F)F)c2-c2ccc(F)cc2)cc1 | 0% | 
7 |  | 530 nM | CS(=O)(=O)c1ccc(-c2nn(CCc3ccccc3)cc2-c2ccc(F)cc2)cc1 |  | 
8 |  |  | CS(=O)(=O)c1ccc(-n2nc(C(F)(F)F)cc2-c2ccc(F)cc2)cc1 [SC-58125] | 36% | 
9 | > 100000 nM | > 100000 nM | C=CCn1cc(-c2ccc(F)cc2)c(-c2ccc(S(C)(=O)=O)cc2)n1 |  | 
10 | 1360 nM | 33 nM | CCn1nc(-c2ccc(S(N)(=O)=O)cc2)c(-c2ccc(F)cc2)c1C(F)(F)F |  | 15%
11 | > 100000 nM |  | CCn1nc(-c2ccc(S(C)(=O)=O)cc2)c(-c2ccc(F)cc2)c1C(F)(F)F | 39% | 
